{"source": "patent US20250154607A1", "about": "“ISOTHERMAL AMPLIFICATION OF PATHOGENS” (priority 2021, published 2025)", "key": {"9° Nm™ DNA polymerase [1]": {"molecular_target": "T1, 9° Nm™ DNA polymerase (Thermococcus sp., UniProt Q56366, E143D)", "T1 sequence (Q56366 whole entry E143D)": "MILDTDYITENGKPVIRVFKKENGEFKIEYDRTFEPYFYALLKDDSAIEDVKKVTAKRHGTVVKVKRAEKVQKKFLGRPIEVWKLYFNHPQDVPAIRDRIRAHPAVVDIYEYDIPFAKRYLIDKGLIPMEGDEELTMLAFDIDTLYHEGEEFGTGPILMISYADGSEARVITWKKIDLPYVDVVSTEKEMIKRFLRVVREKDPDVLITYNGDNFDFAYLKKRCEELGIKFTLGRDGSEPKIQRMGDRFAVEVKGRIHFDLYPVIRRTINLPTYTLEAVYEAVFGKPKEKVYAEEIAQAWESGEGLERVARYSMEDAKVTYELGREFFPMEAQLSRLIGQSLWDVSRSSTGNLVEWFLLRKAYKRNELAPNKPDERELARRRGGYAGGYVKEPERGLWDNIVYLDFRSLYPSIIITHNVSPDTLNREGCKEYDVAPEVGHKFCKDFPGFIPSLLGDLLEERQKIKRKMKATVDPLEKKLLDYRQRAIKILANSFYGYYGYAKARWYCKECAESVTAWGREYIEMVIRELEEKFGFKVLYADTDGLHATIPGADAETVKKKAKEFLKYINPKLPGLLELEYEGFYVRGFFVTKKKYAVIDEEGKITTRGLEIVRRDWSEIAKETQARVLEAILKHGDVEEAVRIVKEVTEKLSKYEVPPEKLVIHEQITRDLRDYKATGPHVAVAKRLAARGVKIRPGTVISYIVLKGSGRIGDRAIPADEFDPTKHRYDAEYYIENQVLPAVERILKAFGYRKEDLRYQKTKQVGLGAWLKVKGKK", "assay": "APA amplification of Neisseria gonorrhea DNA with SDS, with or without HPβCD", "assay_type": "biochemical", "settings": "no protective agent (absence of βCD); 500 copies N. gonorrhea genomic DNA; APA at 68° C.", "method": "This example provides SDS complexation analyses of the methods and compositions provided herein. […] Anionic detergent SDS at >0.01% is inhibitory to APA amplification of DNA, but the presence of the protective agent hydroxypropyl β-CD (βCD) allowed amplification to proceed despite≤0.2% SDS. The kinetics of hydroxypropyl β-CD sequestration of SDS were thus sufficiently rapid at a molar ratio of 2:1 (˜14 mM: −7 mM) to prevent 9° Nm™ DNA polymerase inactivation by SDS.\nStandard APA reactions with or without 4% Sigma 389145 HPβCD containing “hot-start” CleanAmp™ deoxynucleotides (CAdNTP) and a sequence-specific molecular beacon detection probe were performed with lyophilized ((supplemented with dextran 40, Trehalose), FIG. 2B) or “wet” (no HPβCD, FIG. 2A) reagents including Tris pH 8.4, KCl, MgSO4, and (NH4)2SO4 Triton X-100, 9° Nm™ DNA polymerase, CAdNTP, primers and probe. For the lyophilized reactions, samples were prepared in 50 μl solution containing MgSO4, and (NH4)2SO4 with (shapes) or without (dashed) 500 copies of N. gonorrhea genomic DNA. After dried reagents were dissolved with the samples, various amounts of SDS were added, as indicated, and solutions were vortexed. For the wet reactions, 45 μl master mix containing all reaction components was added to 5 μl sample containing 1OX SDS (final concentration as indicated), with and without 500 copies of N. gonorrhea genomic DNA. Activation of CAdNTP by 2 minutes 90° C. was followed by APA at 68° C. for 10 minutes with detection of the NG amplification product by fluorescence collected every 15 seconds."}, "[2]": {"system": "Chlamydia trachomatis elementary bodies", "assay": "Lysis of Chlamydia trachomatis elementary bodies, read out by APA", "settings": "lysis buffer 0.4% SDS, pH 2.2, 2 minutes at 78° C.; compared with heat lysis 5 minutes at 95° C.", "method": "Elementary body lysis (˜40/reaction) was probed in this example using an APA-based assay. Elementary bodies (Acrometrix) were added to either cold chlamydia transport media (SPD containing sucrose, phosphate buffer, and glutamic acid), TE (Tris-EDTA 10-1), or lysis buffer containing 0.4% SDS, pH 2.2. The samples in TE or SDS were heated 5 minutes at 95° C. (heat lysis) or 2 minutes at 78° C. (SDS lysis), respectively. Then 5 μl (containing 40 elementary bodies) was added to “wet” APA reaction mix as above (pH 7.6 to facilitate isothermal CAdNTP activation) containing 4% cyclodextrin HP-βCD for isothermal APA (68° C.) with fluorescence from a chlamydia-specific molecular beacon collected every 15 seconds."}, "Taq polymerase": {"molecular_target": "Taq polymerase (Thermus aquaticus, UniProt P19821)", "sequence (P19821 whole entry)": "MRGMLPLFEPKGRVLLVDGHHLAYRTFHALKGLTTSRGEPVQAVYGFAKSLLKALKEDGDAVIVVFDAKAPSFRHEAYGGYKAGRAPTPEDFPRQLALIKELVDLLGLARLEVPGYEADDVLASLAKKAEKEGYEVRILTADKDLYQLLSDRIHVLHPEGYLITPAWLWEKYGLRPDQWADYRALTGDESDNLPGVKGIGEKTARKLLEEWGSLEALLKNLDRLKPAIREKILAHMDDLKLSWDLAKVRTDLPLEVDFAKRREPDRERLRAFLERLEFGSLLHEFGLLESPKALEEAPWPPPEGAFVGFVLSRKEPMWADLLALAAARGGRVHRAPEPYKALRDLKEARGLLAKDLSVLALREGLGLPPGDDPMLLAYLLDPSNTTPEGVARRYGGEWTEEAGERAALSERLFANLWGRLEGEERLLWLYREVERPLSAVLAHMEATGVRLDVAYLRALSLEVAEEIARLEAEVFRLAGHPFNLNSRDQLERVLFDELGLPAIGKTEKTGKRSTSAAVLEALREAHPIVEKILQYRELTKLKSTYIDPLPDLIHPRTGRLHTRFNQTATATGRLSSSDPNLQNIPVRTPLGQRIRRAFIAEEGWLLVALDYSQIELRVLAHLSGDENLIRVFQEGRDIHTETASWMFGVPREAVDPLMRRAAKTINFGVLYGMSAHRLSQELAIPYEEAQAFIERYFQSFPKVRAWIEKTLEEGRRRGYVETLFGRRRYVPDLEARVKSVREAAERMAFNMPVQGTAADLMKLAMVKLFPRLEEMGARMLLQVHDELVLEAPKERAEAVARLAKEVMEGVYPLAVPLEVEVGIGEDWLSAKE", "settings": "cited from earlier work"}, "9° Nm™ DNA polymerase [3]": {"molecular_target": "T1, 9° Nm™ DNA polymerase", "assay": "Order-of-addition assay (APA of S. enterica DNA, SDS and hydroxypropyl β-CD)", "assay_type": "biochemical", "method": "Order-of-addition assay: Detection time dependent on cyclodextrin addition prior to brief interaction of enzymes with SDS. Since SDS rapidly and irreversibly inactivated 9° Nm™ DNA polymerase, when the enzyme is instead simultaneously exposed to SDS and β-CD, the kinetics of complexation of the latter two substances must be very rapid, compared with the rate of interaction between SDS and the enzyme.\nFIG. 6 depicts data related to detection of S. enterica DNA target (50,000 copies) by APA reactions in a wet “hot-start” format mediated by CleanAmp™ deoxynucleotides (CAdNTP) containing Tris pH7.6, KCl, (NH4)2SO4, MgSO4, Triton X-100, SYBRI, CAdNTP, 9° Nm™ DNA polymerase, with additions of 0.4% SDS (X), 4% hydroxypropyl β-CD (squares), SDS then immediately β-CD (circles), or β-CD then SDS (solid line) with mixing. Control (ctrl dotted line) was no additions. All samples included DNA target. Isothermal APA was at 68° C., collecting intercalating dye fluorescence every 15 seconds to monitor all exponential DNA amplification. […] Negative controls for each condition without S. enterica DNA confirmed specificity of indicated amplification products (not shown)."}, "nasal ribonuclease": {"system": "nasal ribonuclease", "assay": "Rapid irreversibility of nasal ribonuclease inactivation (RNase alert assay)", "assay_type": "biochemical", "settings": "0.2% SDS with or without 40 mM cysteine, 60° C.; immediately diluted into 4% β-cyclodextrin", "method": "FIG. 13 depicts data related to the rapid irreversibility of nasal ribonuclease inactivation. 5 μl concentrated nasal swab eluate in TE, an amount equivalent to 2% on a typical nasal swab, was mixed with 45 μl of either lysis buffer containing 0.2% SDS (RBS, solid line), RBS containing 40 mM cysteine (squares), or water (dotted line) all preheated to 60° C. 5 μl was immediately diluted into 45 μl 4% β-cyclodextrin to sequester detergent. The recovered RNase activity was determined with an RNase alert assay; as control for the assay, an equivalent amount of nasal swab eluate was directly added without prior treatment (X). […] Unexpectedly, the effectively irreversible inactivation of ribonucleases thus observed during the practice of this invention was virtually instantaneous (monitored by directly testing ribonuclease activity), unlike prior art methods based upon heat. Also shown in this example is that the inactivation properties described for RNase A are also attributable to ribonucleases naturally occurring in nasal exudates."}, "RNase A [4]": {"molecular_target": "T2, RNase A (Bos taurus, UniProt P61823)", "T2 sequence (P61823 27-150)": "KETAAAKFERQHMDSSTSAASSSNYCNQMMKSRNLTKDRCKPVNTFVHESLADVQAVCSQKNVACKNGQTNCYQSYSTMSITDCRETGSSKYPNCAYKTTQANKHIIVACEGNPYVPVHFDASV", "assay": "Requirements for irreversible RNase inactivation (influenza B RNA APA in presence of RNase A)", "assay_type": "biochemical", "settings": "500 ng RNase A (10 μg/ml); additions 0.2% SDS, 10 mM DTT, 0.1% Triton X-100 as labelled; 2 minutes at 58° C.; then 4% βCD"}, "RNase A [5]": {"molecular_target": "T2, RNase A", "assay": "Influenza B virus APA assay with RNase A in ELB (Elution/Lysis Buffer)", "assay_type": "biochemical", "settings": "RNAse A 10 μg/ml; 2 minutes 58° C. in ELB with 0.2% SDS, without or with 10 mM DTT; β-CD 4% final", "method": "FIGS. 12A-12B depict data related to RNase A inactivation in an influenza B assay like the one in Example 4, with DTT in ELB (Elution/Lysis Buffer). […] After incubation, lyophilized APA reagents co-incubated 2 minutes 58° C., containing β-CD (4% final) were dissolved with the heated solutions, and FAM fluorescence collected every 15 seconds to monitor APA. […] The inclusion of DTT enables unimpeded operation of this POC influenza detection system in a mock sample containing very high level of purified RNase A ([…]). Moreover, while currently available methods can only achieve irreversible ribonuclease inactivation at a maximum 200 ng/ml, the compositions and methods provided herein show utility with 10 μg/ml to accommodate potentially larger amounts in patient samples."}}}
{"smiles": "CCCCCCCCCCCCOS(=O)(=O)[O-].[Na+]", "note": "[SDS, sodium dodecyl sulfate]", "values": [{"measurement": "SDS concentration inhibitory to APA amplification of DNA", "setting": "9° Nm™ DNA polymerase [1]", "value": "> 0.01", "unit": "%"}, {"measurement": "Liberation of target DNA from elementary bodies (lysis)", "setting": "[2]", "value": "as effective in liberating target DNA as the heat lysis"}, {"measurement": "SDS concentration with inhibitory effect for PCR with Taq polymerase", "setting": "Taq polymerase", "value": "greater than 0.01 % (w/v)"}, {"measurement": "Effect on APA amplification", "setting": "9° Nm™ DNA polymerase [3]; 0.4% SDS alone, S. enterica DNA 50,000 copies", "value": "Barrier to amplification"}, {"measurement": "Effect on 9° Nm™ DNA polymerase", "setting": "9° Nm™ DNA polymerase [3]; 0.4% SDS then immediately β-CD (brief exposure)", "value": "sufficient to inactivate"}, {"measurement": "Reversibility of nasal RNase inactivation after SDS sequestration", "setting": "nasal ribonuclease", "value": "virtually completely reversible"}, {"measurement": "Influenza B RNA detection by APA after RNase A pretreatment", "setting": "RNase A [4]", "value": "did not prevent significant restoration of RNase A activity"}, {"measurement": "Influenza B virus APA performance in presence of RNAse A", "setting": "RNase A [5]", "value": "recovery of inhibitory levels of RNAse A"}]}
